Reference: ChEMBL document CHEMBL1201862, “PubChem BioAssay data set” (2004)
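96-well plates; 48 h exposure; 5 concentrations. Endpoints by linear interpolation between flanking doses. Not reached: highest tested concentration assigned. GI50 is the concentration that inhibits growth by half.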 Active and inactive are the calls of the source. Rule as the data show it: active = GI50 up to about 1.1 µM and inactive = higher.

Legend:
Assay in all cases: NCI anticancer screen, dose series, 48 h
SK-MEL-2 = system: SK-MEL-2
SF-295 = system: SF-295
SNB-19 = system: SNB-19
SN12C = system: SN12C
SR = system: SR
A498 = system: A498
IGROV-1 = system: IGROV-1
OVCAR-4 = system: OVCAR-4
KM12 = system: KM12
786-0 = system: 786-0
NCI-H522 = system: NCI-H522
OVCAR-5 = system: OVCAR-5
K562 = system: K562
LXFL 529 = system: LXFL 529
M14 = system: M14
SNB-78 = system: SNB-78
CCRF-CEM = system: CCRF-CEM
CAKI-1 = system: CAKI-1

SMILES	GI50 (SK-MEL-2)	GI50 (SF-295)	GI50 (SNB-19)	GI50 (SN12C)	GI50 (SR)	GI50 (A498)	GI50 (IGROV-1)	GI50 (OVCAR-4)	GI50 (KM12)	GI50 (786-0)	GI50 (NCI-H522)	GI50 (OVCAR-5)	GI50 (K562)	GI50 (LXFL 529)	GI50 (M14)	GI50 (SNB-78)	GI50 (CCRF-CEM)	GI50 (CAKI-1)
CC(=O)OC1COC(N2CCc3ccccc32)C(OC(C)=O)C1OC(C)=O (stereo not drawn)	> 100 µM (inactive)	> 100 µM (inactive)	> 100 µM (inactive)	> 100 µM (inactive)	> 100 µM (inactive)	> 100 µM (inactive)	> 100 µM (inactive)	> 100 µM (inactive)	> 100 µM (inactive)	> 100 µM (inactive)	> 100 µM (inactive)	> 100 µM (inactive)	> 100 µM (inactive)	> 100 µM (inactive)	> 100 µM (inactive)	> 76.4 µM (inactive)	> 100 µM (inactive)	> 100 µM (inactive)
CC(C)=CC(=O)N1CCN(C(=O)C=C(C)C)CC1		> 100 µM (inactive)	> 100 µM (inactive)	> 100 µM (inactive)	> 100 µM (inactive)	> 100 µM (inactive)	> 100 µM (inactive)	> 100 µM (inactive)	> 100 µM (inactive)	> 100 µM (inactive)	> 100 µM (inactive)	> 100 µM (inactive)	> 100 µM (inactive)	> 100 µM (inactive)	> 100 µM (inactive)	> 100 µM (inactive)	> 100 µM (inactive)	> 100 µM (inactive)
O=C1C(Cl)C(c2ccccc2Cl)N1n1cnc2ccccc2c1=O (stereo not drawn)	24.7 µM (inactive)	29.4 µM (inactive)	22.5 µM (inactive)	> 100 µM (inactive)	5.13 µM (inactive)		80.4 µM (inactive)	> 100 µM (inactive)	> 100 µM (inactive)	75.7 µM (inactive)	25.8 µM (inactive)	> 100 µM (inactive)	18.7 µM (inactive)	49.1 µM (inactive)	94 µM (inactive)	> 100 µM (inactive)	45.8 µM (inactive)	47.6 µM (inactive)
Clc1cc2ns[s+]c2cc1Cl	> 45.1 µM (inactive)	47.1 µM (inactive)	> 74.8 µM (inactive)	58.9 µM (inactive)	23.2 µM (inactive)	> 100 µM (inactive)	98.6 µM (inactive)	> 100 µM (inactive)	41 µM (inactive)	> 75.9 µM (inactive)	27.6 µM (inactive)	> 62.7 µM (inactive)	4.55 µM (inactive)	4.72 µM (inactive)	9.73 µM (inactive)	> 100 µM (inactive)	33.4 µM (inactive)	18.9 µM (inactive)
N#CC(C#N)=Cc1ccc(Oc2ccccc2)cc1	24.3 µM (inactive)	22.2 µM (inactive)	37.3 µM (inactive)	14.1 µM (inactive)	41.3 µM (inactive)	> 100 µM (inactive)	29.9 µM (inactive)		39.3 µM (inactive)	18.2 µM (inactive)	23.7 µM (inactive)	> 100 µM (inactive)	26.7 µM (inactive)	25.8 µM (inactive)	22.2 µM (inactive)	28.2 µM (inactive)	23.8 µM (inactive)	43.8 µM (inactive)
Cc1ccccc1NC(=O)c1nc(S)nc(N)c1-c1ccccc1C	> 100 µM (inactive)	> 100 µM (inactive)	> 100 µM (inactive)	> 100 µM (inactive)	> 100 µM (inactive)	> 100 µM (inactive)	> 100 µM (inactive)	> 100 µM (inactive)	> 100 µM (inactive)	> 100 µM (inactive)	> 100 µM (inactive)	> 100 µM (inactive)	> 100 µM (inactive)	> 100 µM (inactive)	> 100 µM (inactive)	> 100 µM (inactive)	> 100 µM (inactive)	> 100 µM (inactive)
O=[N+]([O-])c1ccc(C(Cl)C(Cl)c2ccc(C(Cl)C(Cl)c3ccc([N+](=O)[O-])cc3[N+](=O)[O-])cc2)c([N+](=O)[O-])c1 (stereo not drawn)	1.42 µM (inactive)	2.31 µM (inactive)	0.671 µM (active)	1.95 µM (inactive)	2.23 µM (inactive)	2.9 µM (inactive)	2.05 µM (inactive)	1.52 µM (inactive)	0.264 µM (active)	1.39 µM (inactive)	1.14 µM (inactive)	1.86 µM (inactive)	0.187 µM (active)	0.92 µM (active)	0.879 µM (active)	3.44 µM (inactive)	0.232 µM (active)	1.67 µM (inactive)
Cc1ccc(Oc2ccc(C(=O)c3cccc(C(=O)c4ccc(Oc5ccc(C)cc5)cc4)n3)cc2)cc1	> 100 µM (inactive)	> 100 µM (inactive)	> 100 µM (inactive)	> 100 µM (inactive)	> 100 µM (inactive)	> 100 µM (inactive)	> 100 µM (inactive)	71.8 µM (inactive)	> 100 µM (inactive)	> 100 µM (inactive)	> 100 µM (inactive)	> 100 µM (inactive)	> 100 µM (inactive)	> 100 µM (inactive)	> 100 µM (inactive)	> 100 µM (inactive)	> 100 µM (inactive)	> 100 µM (inactive)
COc1cc(C(=C2SCCS2)c2nccc3cc(OC)c(OC)cc23)c([N+](=O)[O-])cc1OC	> 100 µM (inactive)	56 µM (inactive)	> 100 µM (inactive)	48.9 µM (inactive)	21.7 µM (inactive)	> 100 µM (inactive)	> 100 µM (inactive)		90.4 µM (inactive)	59.3 µM (inactive)	36.6 µM (inactive)	> 100 µM (inactive)	9.42 µM (inactive)	18.5 µM (inactive)	89.9 µM (inactive)	18 µM (inactive)	34.1 µM (inactive)	
C[n+]1c2ccccc2c(NCC(=O)O)c2ccccc21	> 100 µM (inactive)	> 100 µM (inactive)	> 100 µM (inactive)	> 100 µM (inactive)	> 100 µM (inactive)	> 100 µM (inactive)	> 100 µM (inactive)	> 100 µM (inactive)	> 100 µM (inactive)	> 100 µM (inactive)	> 100 µM (inactive)	> 100 µM (inactive)	> 100 µM (inactive)	> 100 µM (inactive)	> 100 µM (inactive)	> 100 µM (inactive)		> 100 µM (inactive)
O=C1C2C3CC(C4C5C=CC(C5)C34)C2C2C3CC(C12)C1C2C=CC(C2)C31 (stereo not drawn)	> 100 µM (inactive)	> 100 µM (inactive)	> 100 µM (inactive)	> 100 µM (inactive)	> 100 µM (inactive)	> 100 µM (inactive)	> 100 µM (inactive)	> 100 µM (inactive)	> 100 µM (inactive)	> 100 µM (inactive)	> 100 µM (inactive)	> 100 µM (inactive)	> 100 µM (inactive)	> 100 µM (inactive)	> 100 µM (inactive)	> 100 µM (inactive)	61.4 µM (inactive)	> 100 µM (inactive)
O=C(CC1C(=O)Nc2ccccc2[S+]1[O-])Nc1ccccc1 (stereo not drawn)	> 100 µM (inactive)	> 100 µM (inactive)	> 100 µM (inactive)	> 100 µM (inactive)	17.2 µM (inactive)	> 100 µM (inactive)	> 100 µM (inactive)	> 100 µM (inactive)	> 100 µM (inactive)	40.8 µM (inactive)	> 100 µM (inactive)	> 100 µM (inactive)		> 100 µM (inactive)	> 100 µM (inactive)	> 100 µM (inactive)	> 100 µM (inactive)	> 100 µM (inactive)
COC(=O)[C@]1(C)CCC[C@@]2(C)C1CCC1=CC3(C(C)C)CCC12OO3 (stereo partly drawn)	46.9 µM (inactive)	46.5 µM (inactive)	> 100 µM (inactive)	43.2 µM (inactive)	27.9 µM (inactive)	18.7 µM (inactive)	> 100 µM (inactive)	51.3 µM (inactive)	> 100 µM (inactive)	85.3 µM (inactive)	40.5 µM (inactive)	> 100 µM (inactive)	27.7 µM (inactive)	31.4 µM (inactive)	74 µM (inactive)	51.3 µM (inactive)	31.2 µM (inactive)	80.5 µM (inactive)
O=[N+]([O-])C1C2C=CC(C2)[C@H]1c1ccc(Cl)cc1Cl (stereo partly drawn)	44.9 µM (inactive)	24.8 µM (inactive)	48.5 µM (inactive)	67 µM (inactive)	35.7 µM (inactive)	55 µM (inactive)		> 10 µM (inactive)	61.2 µM (inactive)	54.3 µM (inactive)	> 10 µM (inactive)	75.2 µM (inactive)	35.4 µM (inactive)	39.4 µM (inactive)	> 10 µM (inactive)	48.4 µM (inactive)	39.4 µM (inactive)	> 10 µM (inactive)
COc1cc(CN[C@H]2CCc3cc(OC)c(OC)c(OC)c3-c3ccc(SC)c(=O)cc32)cc(OC)c1	0.0463 µM (active)	0.0336 µM (active)	0.0681 µM (active)	0.0367 µM (active)	< 0.01 µM (active)	0.0306 µM (active)	0.0403 µM (active)	0.0731 µM (active)	0.0385 µM (active)	0.0468 µM (active)	0.0245 µM (active)	0.0499 µM (active)	0.0317 µM (active)	0.0494 µM (active)	0.0322 µM (active)	0.0538 µM (active)		0.0566 µM (active)
CC(C)[C@H](CCl)NC(=O)c1cccc(C(=O)N[C@H](CCl)C(C)C)n1 (stereo in doubt)		> 100 µM (inactive)	> 100 µM (inactive)	> 100 µM (inactive)	> 100 µM (inactive)	78.7 µM (inactive)	> 100 µM (inactive)	> 100 µM (inactive)	> 100 µM (inactive)	> 100 µM (inactive)	> 100 µM (inactive)	> 100 µM (inactive)	> 100 µM (inactive)	> 100 µM (inactive)	> 100 µM (inactive)	> 100 µM (inactive)	> 100 µM (inactive)	> 100 µM (inactive)
